In EP4810508A1, “ARABINOSE DERIVATIVE COMPOUND, AND COMPOSITION COMPRISING SAME FOR PREVENTING OR TREATING DEGENERATIVE BRAIN DISEASES” (Digmbio. Inc., priority 2023, dated 2025):
Where two headings read alike, the source gives them in different places.

How the values were obtained:
male ICR mice [1] = experiment: Scopolamine-induced cognitive impairment model: passive avoidance test (PAT); format: in vivo; settings: for percent recovery of memory in passive avoidance test (normal group = 100, scopolamine control = 0) at 50 mg/kg: Mus musculus, po, 168 h, read-out: in vivo(effect) PAT (%); for in vivo PAT: time staying in bright room (step-through latency); for cognitive function recovery compared to normal animals, passive avoidance test (effect %): compounds 50 mg/kg, orally for 7 days, scopolamine 1 mg/kg intraperitoneal
Excerpt: (§1) A memory loss rodent animal model induced by scopolamine intraperitoneal administration is used, and an evaluation method for memory uses a Y-maze test and a passive avoidance test (PAT). Scopolamine is a representative experimental model showing an impairment of cognitive function similar to AD patients by blocking neurotransmitters when administered to an animal as an antagonist of a muscarinic acetylcholine receptor, and as a cognitive function evaluation technique, a Y-maze test and a passive avoidance experiment, which are general and representative methods, were used, and in order to objectify the efficacy levels of the compounds, a group administered with donepezil (Aricept, Eisa) as a positive control material was separately provided to compare the efficacy levels of the compounds.
(§2) In order to evaluate cognitive function, 5-week-old male ICR mice were used, the compounds to be evaluated were prepared at a dose of 50 mg/kg/ml and repeatedly orally administered at a predetermined time for 7 days, and the positive control material was carried out at 5 mg/kg/ml. After the last administration, after 30 minutes of intraperitoneal administration of 1 mg/kg/2 ml of scopolamine, a Y-maze test and a passive avoidance test, which are cognitive function evaluations, were performed.
In addition, the passive avoidance test was conducted using an avoidance learning box (Jeondo B&P, Korea, Seoul), and the avoidance learning box is divided into a dark room and a bright room, and when a laboratory animal is put into a bright room, the subject goes beyond the dark room. At the moment, an electric shock of 0.5 mA is applied for 5 seconds, and when the next day experimental animal is put back into a bright room, an electric shock in a dark room is memorized and stay in a bright room. In this case, a step-through latency is measured to evaluate memory. The efficacy of the compounds of the present invention against the normal group and the control group in the Y-maze test and the passive avoidance test was described in the following Table 3 (Scopolamine-induced cognitive impairment model result).

HRE/Luc/HEK293 cells = experiment: HRE (Hypoxia Response Element) luciferase assay; format: cell-based, human; settings: for fold induction at 10 µM / fold induction at 100 µM: Homo sapiens; for HRE assay: increase in HRE expression levels by the test substance relative to the vehicle in HRE/Luc/HEK293 cells; for HRE expression: low concentration of 1 µM
Outline: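 HRE-luciferase HEK293 cells in MEM/10% FBS pretreated with compound 6 h, then held under hypoxia (0.1% O2) 18 h; luminescence read after lysis. Scored as fold increase over vehicle, with twofold threshold at 100, 10 or 1 µM.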

male ICR mice [2] = experiment: Scopolamine-induced cognitive impairment model: Y-maze test; format: in vivo; settings: for percent recovery of cognitive function (Y-maze) at 50 mg/kg: Mus musculus, po, 168 h; for in vivo Y-maze (%): spontaneous alternation
Excerpt: as §1, §2
The Y-maze test is a method for evaluating the ability to sequentially act as an experiment for measuring short-term memory. The measurement equipment is composed of three branches, each branch has a length of 42 cm, a width of 3 cm, and a height of 12 cm, and an angle at which three branches are folded is 120°. Experimental animals are put into each branch for 8 minutes, and the number of times of entering the branches to the tail of the experimental animal and the case of being sequentially received in each branch are scored (actual alternation). The alternation behavior is defined as entering not to overlap all three, and is calculated by the following equation. [formula]

[3] = scopolamine 1 mg/kg i.p., compounds 50 mg/kg oral for 7 days, donepezil 5 mg/kg (avg.)
[4] = HEK293, fold increase of HRE expression, hypoxic conditions (O2 0.1%) 18 hours, Table 2, read-out: HRE-increasing 10uM
[5] = HEK293, fold increase of HRE expression, hypoxic conditions (O2 0.1%) 18 hours, Table 2, read-out: HRE-increasing 100uM
[6] = read-out: in vivo(effect) Y-maze (%)
[7] = read-out: cognitive function recovery compared to normal animals, Y-maze experiment (effect %)
[8] = HEK293, 18 h, Table 2 (Examples 75-109, 114), read-out: HRE-inceasing 10uM
[9] = HEK293, 18 h, Table 2 (Examples 75-109, 114), read-out: HRE-inceasing 100uM
[10] = effect compared to normal group (100) and control group (0), compounds 50 mg/kg oral for 7 days, donepezil 5 mg/kg (avg.)
[11] = range over experiment sets, donepezil 5 mg/kg oral for 7 days, scopolamine 1 mg/kg i.p.
[12] = range over experiment sets, effect compared to normal and control group, donepezil 5 mg/kg

Compound | percent recovery of memory in passive avoidance test (normal group = 100, scopolamine control = 0) at 50 mg/kg (male ICR mice [1]) [%] | in vivo PAT (male ICR mice [1]; [3]) [s] | fold induction at 10 µM (HRE/Luc/HEK293 cells; [4]) | fold induction at 100 µM (HRE/Luc/HEK293 cells; [5]) | HRE assay (HRE/Luc/HEK293 cells) | percent recovery of cognitive function (Y-maze) at 50 mg/kg (male ICR mice [2]; [6]) [%] | in vivo Y-maze (%) (male ICR mice [2]; [3]) | percent recovery of cognitive function (Y-maze) at 50 mg/kg (male ICR mice [2]; [7]) [%] | fold induction at 10 µM (HRE/Luc/HEK293 cells; [8]) | fold induction at 100 µM (HRE/Luc/HEK293 cells; [9]) | also measured
O[C@@H]1[C@@H](O)[C@@H](Oc2ccc(Cc3ccccc3)cc2)OC[C@@H]1O [Example 1, (2R,3R,4S,5S)-2-(4-benzylphenoxy)tetrahydro-2H-pyran-3,4,5-triol] | 35 | 133 | 1.2 | 2.2 | •• | 38 | 64 |  |  |  | 
Cc1ccc(Cc2ccc(O[C@H]3OC[C@H](O)[C@H](O)[C@H]3O)cc2)cc1 [Example 2, (2R,3R,4S,5S)-2-(4-(4-methylbenzyl)phenoxy) tetrahydro-2H-pyran-3,4,5-triol] | 25 | 134 | 2.5 | 3.2 | ••• | 51 | 63 | ≥ 50 |  |  | 
COc1ccc(Cc2ccc(O[C@H]3OC[C@H](O)[C@H](O)[C@H]3O)cc2)cc1 [Example 3, (2R,3R,4S,5S)-2-(4-(4-methoxybenzyl)phenoxy)tetrahydro-2H-pyran-3,4,5-triol] | 91 | 206 | 1.5 | 3.1 | •• | 59 | 61 | 59 |  |  | cognitive function recovery compared to normal animals, passive avoidance test (effect %) (male ICR mice [1]; donepezil 5 mg/kg): 91%
COc1ccc(Cc2cccc(O[C@H]3OC[C@H](O)[C@H](O)[C@H]3O)c2)cc1 [Example 25, (2R,3R,4S,5S)-2-(3-(4-methoxybenzyl)phenoxy)tetrahydro-2H-pyran-3,4,5-triol] | 1 | 42 |  |  |  | 65 | 62 | ≥ 50 |  |  | 
Cc1ccc2oc(-c3ccc(O[C@@H]4OC[C@H](O)[C@H](O)[C@H]4O)cc3)nc2c1 [Example 108, (2S,3R,4S,5S)-2-(4-(5-methylbenzo[d]oxazol-2-yl)phenoxy)tetrahydro-2H-pyran-3,4,5-triol] |  |  |  |  |  |  |  |  | 3.6 | 1.6 | HRE expression (HRE/Luc/HEK293 cells): more than threefold
Cc1ccc2oc(-c3ccc(O[C@H]4OC[C@H](O)[C@H](O)[C@H]4O)cc3)nc2c1 [Example 109, (2R,3R,4S,5S)-2-(4-(5-methylbenzo[d]oxazol-2-yl)phenoxy)tetrahydro-2H-pyran-3,4,5-triol] |  |  |  |  |  |  |  |  | 3.2 | 4.4 | HRE expression (HRE/Luc/HEK293 cells): more than threefold
O=C(c1ccc(O[C@@H]2OC[C@H](O)[C@H](O)[C@H]2O)cc1)c1ccco1 [Example 114, furan-2-yl (4-(((2S,3R,4S,5S)-3,4,5-trihydroxytetrahydro-2H-pyran-2-yl)oxy)phenyl)methanone] |  |  |  |  |  |  |  |  | 1.1 | 1.3 | 
O=C(c1ccc(O[C@H]2OC[C@H](O)[C@H](O)[C@H]2O)cc1)c1ccco1 [Example 115, furan-2-yl(4-(((2R,3R,4S,5S)-3,4,5-trihydroxytetrahydro-2H-pyran-2-yl)oxy)phenyl)methanone] |  |  | 1 | 1.4 |  |  |  |  |  |  | 
COc1cc2c(cc1OC)C(=O)C(CC1CCN(Cc3ccccc3)CC1)C2 (stereo not shown) [donepezil, reference compound] |  | 219 |  |  |  |  | 67 |  |  |  | cognitive function recovery compared to normal animals, passive avoidance test (effect %) (male ICR mice [1]; donepezil 5 mg/kg): 94%; in vivo(effect) PAT (%) (male ICR mice [1]; [10]): 82%; in vivo PAT (sec), range (male ICR mice [1]; [11]): 173~251 sec; in vivo(effect) PAT (%), range (male ICR mice [1]; [12]): 59-95%; cognitive function recovery compared to normal animals, Y-maze experiment (effect %) (male ICR mice [2]; compounds 50 mg/kg, donepezil 5 mg/kg, orally for 7 days, scopolamine 1 mg/kg intraperitoneal): 35%; in vivo(effect) Y-maze (%) (male ICR mice [2]; [10]): 72%; in vivo Y-maze (%), range (male ICR mice [2]; [11]): 56-74%; in vivo(effect) Y-maze (%), range (male ICR mice [2]; [12]): 35-111%
